# Source: patent publication US9340524B2, “Androgen receptor modulator and uses thereof” (Aragon Pharmaceuticals, Inc., priority 2013, dated 2016)
# Key:
# MDA MB 453 cells = assay: MDA MB 453 breast cancer xenograft assay; format: in vivo, female SCID Hairless Outbred (SHO) mice; details: 30 mg/kg/day, daily for 28 days
# Method: Time release pellets (12.5 mg 5α-Dihydrotestosterone/60 days) were subcutaneously implanted into female SCID Hairless Outbred (SHO) mice. MDA MB 453 cells were grown in RPMI containing 10% FBS, 10 μg/ml insulin, 10 mM Sodium Pyruvate, 10 mM Non-Essential Amino Acids at 5% CO2, 37° C. Cells were spun down and re-suspended in 50% RPMI (serum free) and 50% Matrigel (BD, high concentration containing phenol red) at 1×10^7 cells/ml. MDA MB 453 cells were subcutaneously injected (100 μl/animal) on the right flank 2-3 days post pellet implantation. Tumor volume (length×width^2/2) was monitored bi-weekly. When tumors reached an average volume of ˜350 mm^3, animals were randomized and treatment was started. […] Tumor volume and body weight were monitored bi-weekly throughout the study. At the conclusion of the treatment period; plasma and tumor samples were taken for pharmacokinetic and pharmacodynamic analyses, respectively.
# LNCaP/AR cells = assay: LNCaP/AR model for castrate resistant prostate cancer xenograft studies; format: in vivo, male SCID Hairless Outbred mice; details: for Efficacy on LNCaP/AR tumors: monotherapy at or near maximally efficacious dose
# Method: In some embodiments, overexpression of wild type androgen receptor 3-5 fold in the LNCaP (LNCaP/AR) cell line confers a castration resistant phenotype both in vitro and in vivo.
# Six to Seven week old male SCID Hairless Outbred mice (SHO, Charles Rivers Laboratories) underwent bilateral orchiectomy under isoflurane anesthesia. LNCaP/AR cells were grown in RPMI at 5% CO2, 37° C. Cells were spun down and re-suspended in 50% serum-free RPMI and 50% Matrigel at 1×10^7 cells/ml. LNCaP/AR cells were subcutaneously injected (100 μl/animal) on the right flank 3-5 days post castration. Tumor volume (length×width^2/2) was monitored weekly. When tumors reached an average volume of ˜200 mm^3 animals were randomized into treatment groups. During the treatment period tumor volume was monitored bi-weekly. At the termination of the study, tumors were collected and stored for further analyses. All compounds were administered daily by oral gavage. Statistical analyses were performed using Graphpad Prism.
# [1] = test system: PTEN KO model of prostate cancer; assay: PTEN KO genetically engineered mouse model of prostate cancer; format: in vivo, mice; details: for Efficacy: combined androgen blockade (castration + anti-androgen)
# Method: Ptenlox/lox; PB-Cre mice (age 6-8 months) are imaged by small animal MRI imaging core prior to and at the completion of treatment. All mice are castrated. Surgical castration is performed under anesthesia with isoflurane. Mice are monitored postoperatively for recovery.
# Mice are administered control vehicle or test article by oral gavage daily Monday through Friday schedule for a total of 35 days. MRI tumor volumes are reported for each mouse at time point zero (T0) at initiation of study and time point 35 days (T35) at completion of study. Changes in tumor volumes between T0 and T35 are calculated for individual mice and reported in waterfall plots. At study end, mice were euthanized by CO2 asphyxiation, and tissue was collected for histology, mRNA analysis, protein analysis and other analyses.
# metastatic CRPC = assay: Phase II clinical trial, metastatic CRPC (treatment-naïve and post-abiraterone acetate cohorts); format: in vivo, human; details: for Patients with 12-week PSA decline of ≧50% from baseline: preliminary
# Text: (§1) The primary objective was to assess antitumor activity and PSA kinetics as defined by the Prostate Cancer Clinical Trials Working Group (PCWG2) criteria. […] The median time to PSA progression was not reached for the TN cohort during the preliminary 12-week period, and was 16 weeks in the PA cohort.
# non-metastatic CRPC = assay: Phase II clinical trial, non-metastatic CRPC; format: in vivo, human; details: 240 mg/day
# Text: as §1
# The median time to PSA progression was not reached in this observed time period.
# [2] = test system: non-castrate hormone-sensitive and bicalutamide-resistant human prostate cancer xenograft models; details: in vivo; cited from earlier work
# T877A AR mutant = biological target: T1, T877A AR mutant (Homo sapiens, UniProt P10275, T878A); details: cited from earlier work
# T1 sequence (P10275 1-920 T878A): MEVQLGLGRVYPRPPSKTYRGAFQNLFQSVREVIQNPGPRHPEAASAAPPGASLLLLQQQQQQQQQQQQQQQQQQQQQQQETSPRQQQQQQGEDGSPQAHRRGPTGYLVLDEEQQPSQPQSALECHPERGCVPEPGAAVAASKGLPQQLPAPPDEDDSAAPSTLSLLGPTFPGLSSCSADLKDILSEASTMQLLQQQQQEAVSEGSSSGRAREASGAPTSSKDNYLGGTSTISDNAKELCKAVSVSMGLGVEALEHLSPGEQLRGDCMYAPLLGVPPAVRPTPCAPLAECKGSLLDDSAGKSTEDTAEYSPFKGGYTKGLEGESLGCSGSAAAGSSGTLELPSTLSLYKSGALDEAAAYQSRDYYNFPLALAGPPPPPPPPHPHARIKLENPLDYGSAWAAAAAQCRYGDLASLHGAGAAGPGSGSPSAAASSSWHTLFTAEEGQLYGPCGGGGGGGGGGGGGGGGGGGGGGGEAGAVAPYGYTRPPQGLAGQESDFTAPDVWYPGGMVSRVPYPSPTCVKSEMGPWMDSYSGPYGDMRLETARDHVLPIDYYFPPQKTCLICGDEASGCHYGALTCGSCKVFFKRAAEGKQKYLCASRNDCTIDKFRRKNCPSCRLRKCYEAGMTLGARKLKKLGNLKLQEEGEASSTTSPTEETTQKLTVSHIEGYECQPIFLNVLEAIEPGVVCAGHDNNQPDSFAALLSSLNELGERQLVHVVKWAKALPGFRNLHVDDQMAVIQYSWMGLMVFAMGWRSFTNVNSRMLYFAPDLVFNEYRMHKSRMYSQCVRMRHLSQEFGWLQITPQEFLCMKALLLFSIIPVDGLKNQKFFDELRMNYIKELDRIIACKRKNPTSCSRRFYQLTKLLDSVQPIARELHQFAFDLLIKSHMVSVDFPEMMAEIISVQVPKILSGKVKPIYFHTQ
smiles,measurement,setting,value
"CNC(=O)c1ccc(N2C(=S)N(c3cnc(C#N)c(C(F)(F)F)c3)C(=O)C23CCC3)cc1F [4-[7-(6-cyano-5-trifluoromethylpyridin-3-yl)-8-oxo-6-thioxo-5,7-diazaspiro[3.4]oct-5-yl]-2-fluoro-N-methylbenzamide]",Number of Tumor Regressions,MDA MB 453 cells; +DHT,9/9
same,Number of Tumor Regressions,MDA MB 453 cells; −DHT,5/10
same,Mean tumor response of LNCaP/AR tumors,LNCaP/AR cells; 1 mg/kg/day,tumor stasis
same,Tumor response of LNCaP/AR tumors,LNCaP/AR cells; 10-30 mg/kg/day,nearly full regression of all treated LNCaP/AR tumors
same,Number of regressions > 50%,"LNCaP/AR cells; Table 4, 3 mg/kg/day alone, oral gavage daily",2/10
same,Number of regressions > 50%,"LNCaP/AR cells; Table 5, 3 mg/kg/day alone, oral gavage daily",1/10
same,Efficacy,[1],minimal efficacy
same,Tolerability,"metastatic CRPC; 240 mg oral, continuous daily dosing, NM-CRPC, TN mCRPC and post-abiraterone mCRPC",very well tolerated
same,Patients with 12-week PSA decline of ≧50% from baseline,"metastatic CRPC; PA cohort, 240 mg oral, continuous daily dosing",29%
same,Median time to PSA progression,"metastatic CRPC; PA cohort, 240 mg/day",16 weeks
same,Patients with 12-week PSA decline of ≧50% from baseline,"metastatic CRPC; TN cohort, 240 mg oral, continuous daily dosing",88%
same,Median time to PSA progression,"metastatic CRPC; TN cohort, preliminary 12-week period, 240 mg/day",not reached
same,Objective response rate (by RECIST),"metastatic CRPC; TN patients with measurable disease at baseline, 240 mg/day",63%
same,Patients with ≧50% decline in PSA as compared to baseline,non-metastatic CRPC; 12 weeks of treatment,91%
same,Patients with ≧50% decline in PSA,non-metastatic CRPC; 24 weeks,91%
same,Patients with ≧90% decline in PSA,non-metastatic CRPC; 24 weeks,55%
same,Median time to PSA progression,non-metastatic CRPC; observed time period,not reached
same,Tumor response,[2],partial or complete tumor regression
Cn1c(=O)n(-c2ccc(C(C)(C)C#N)cc2)c2c3cc(-c4cnc5ccccc5c4)ccc3ncc21 [BEZ-235],Anti-tumor activity,[1]; monotherapy,minimal anti-tumor activity
"Nc1cc(C(F)(F)F)c(-c2cc(N3CCOCC3)nc(N3CCOCC3)n2)cn1 [BKM120, 5-(2,6-dimorpholinopyrimidin-4-yl)-4-(trifluoromethyl)pyridin-2-amine]",Number of regressions > 50%,"LNCaP/AR cells; Table 4, BKM120 20 mg/kg alone",1/10
same,Number of regressions > 50%,"LNCaP/AR cells; Table 4, BKM120 40 mg/kg alone",0/9
same,Efficacy on LNCaP/AR tumors,LNCaP/AR cells,a range of efficacy from tumor growth inhibition to tumor stasis
CO[C@H]1C[C@@H]2CC[C@@H](C)[C@@](O)(O2)C(=O)C(=O)N2CCCC[C@H]2C(=O)O[C@H]([C@H](C)C[C@@H]2CC[C@@H](OCCO)[C@H](OC)C2)CC(=O)[C@H](C)/C=C(\C)[C@@H](O)[C@@H](OC)C(=O)[C@H](C)C[C@H](C)/C=C/C=C/C=C/1C [Everolimus],Number of regressions > 50%,"LNCaP/AR cells; Table 5, Everolimus 5 mg/kg/day alone",0/8
same,Number of regressions > 50%,"LNCaP/AR cells; Table 5, Everolimus 10 mg/kg/day alone",2/10
same,Efficacy on LNCaP/AR tumors,LNCaP/AR cells,a range of efficacy from tumor growth inhibition to tumor stasis
"CNC(=O)c1ccc(N2C(=S)N(c3ccc(C#N)c(C(F)(F)F)c3)C(=O)C2(C)C)cc1F [MDV3100, 4-(3-(4-cyano-3-(trifluoromethyl)phenyl)-5,5-dimethyl-4-oxo-2-thioxoimidazolidin-1-yl)-2-fluoro-N-methylbenzamide]",Efficacy,[1],minimal efficacy
COc1ccc(Cl)c(Nc2nc3ccccc3nc2NS(=O)(=O)c2cccc(NC(=O)C(C)(C)N)c2)c1 [SAR245408],Efficacy on LNCaP/AR tumors,LNCaP/AR cells,a range of efficacy from tumor growth inhibition to tumor stasis
CC(C)(O)C(=O)Nc1ccc([N+](=O)[O-])c(C(F)(F)F)c1 [hydroxyflutamide],Agonist activity,T877A AR mutant,act as AR agonists
